Where “and” joins values, the source holds several entries; their conditions need not be identical. Equal values may be shown once. Read-outs that look alike come from different tables or passages of the source.
Legend:
[1] = tested on: KB-V1 cells; conditions: for effect on MDR phenotype: cytotoxicity of paclitaxel and vinblastine, Supplemental Information 2; for change of LD50 / resistance in presence of 5-CHInd: 10 μM 5-CHInd over 72 hours, Figure 4A
[2] = tested on: MDCK monolayers; experiment: Monolayer efflux experiment, MDCK monolayers; conditions: substance alone (10 μM 5-CHInd, 3 μM rhodamine 123, 4 μM calcein-AM)
[3] = tested on: KB3-1 cells; experiment: MTT cytotoxicity assay in KB3-1 cells; format: cell-based
[4] = target: P-gp (MDCK-MDR1 monolayers) (Homo sapiens, UniProt P08183); experiment: Monolayer efflux experiment, MDCK-MDR1 monolayers
[5] = target: T1, P-gp (Homo sapiens, UniProt P08183); experiment: P-gp ATPase assay, hydrolysis of [γ-32P]-ATP by P-gp membranes; format: biochemical
[6] = target: T1, P-gp; experiment: PDSP cell-based screen: accumulation of calcein-AM in Caco-2 cells; conditions: analogs of the screened nucleoside library
[7] = Monolayer efflux experiment, MDCK monolayers; conditions: dog
[8] = target: P-gp (MDR1) (Homo sapiens, UniProt P08183); experiment: Monolayer efflux experiment, MDCK-MDR1 monolayers; conditions: dog
[9] = substance alone (10 μM 5-CHInd, 3 μM rhodamine 123, 4 μM calcein-AM), mean ± SEM

T1 sequence (P08183 whole entry): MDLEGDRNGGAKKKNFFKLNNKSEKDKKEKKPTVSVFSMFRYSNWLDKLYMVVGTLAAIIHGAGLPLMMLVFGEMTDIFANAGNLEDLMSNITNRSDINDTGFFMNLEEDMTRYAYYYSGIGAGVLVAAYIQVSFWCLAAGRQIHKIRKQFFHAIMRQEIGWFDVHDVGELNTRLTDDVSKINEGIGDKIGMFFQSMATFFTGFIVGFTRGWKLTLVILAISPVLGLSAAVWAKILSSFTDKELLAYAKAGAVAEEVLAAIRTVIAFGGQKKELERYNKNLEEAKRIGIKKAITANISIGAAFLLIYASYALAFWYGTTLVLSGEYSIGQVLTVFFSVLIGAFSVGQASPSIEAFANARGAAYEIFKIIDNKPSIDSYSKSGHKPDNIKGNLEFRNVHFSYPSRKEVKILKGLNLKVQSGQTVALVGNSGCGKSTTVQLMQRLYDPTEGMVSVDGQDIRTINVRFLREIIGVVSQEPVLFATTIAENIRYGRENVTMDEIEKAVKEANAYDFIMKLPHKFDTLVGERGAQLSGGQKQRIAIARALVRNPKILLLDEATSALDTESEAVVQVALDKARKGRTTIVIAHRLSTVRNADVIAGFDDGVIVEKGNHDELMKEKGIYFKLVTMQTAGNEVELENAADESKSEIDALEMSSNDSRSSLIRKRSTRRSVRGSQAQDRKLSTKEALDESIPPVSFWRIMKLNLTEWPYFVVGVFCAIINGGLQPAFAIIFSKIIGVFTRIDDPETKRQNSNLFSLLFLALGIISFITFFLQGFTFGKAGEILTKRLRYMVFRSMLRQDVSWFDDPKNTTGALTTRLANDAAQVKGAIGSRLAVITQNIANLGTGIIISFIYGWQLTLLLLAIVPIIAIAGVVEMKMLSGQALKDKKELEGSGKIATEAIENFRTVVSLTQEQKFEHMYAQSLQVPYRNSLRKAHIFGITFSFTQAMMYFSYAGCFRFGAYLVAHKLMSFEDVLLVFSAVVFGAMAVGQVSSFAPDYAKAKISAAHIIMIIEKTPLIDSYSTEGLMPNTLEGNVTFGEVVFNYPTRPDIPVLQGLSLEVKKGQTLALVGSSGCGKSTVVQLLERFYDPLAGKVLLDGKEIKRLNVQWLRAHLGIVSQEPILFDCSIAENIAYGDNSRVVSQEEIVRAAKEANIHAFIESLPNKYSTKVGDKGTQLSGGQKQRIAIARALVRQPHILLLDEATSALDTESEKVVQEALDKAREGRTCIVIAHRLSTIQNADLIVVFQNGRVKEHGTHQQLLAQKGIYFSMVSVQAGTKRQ
Chain of P-gp (MDCK-MDR1 monolayers) (P08183 whole entry): as above
Chain of P-gp (MDR1) (P08183 whole entry): as above

OC[C@H]1O[C@@H](n2ccc3cc(C4=CCCCC4)ccc32)C[C@@H]1O [5-CEInd, 5-cyclohexene indolyl 2′-deoxyribose]
effect on MDR phenotype ([1]; KB-V1): no significant effects on MDR phenotype

OC[C@H]1O[C@@H](n2ccc3cc(C4CCCCC4)ccc32)C[C@@H]1O [5-CHInd, 5-cyclohexyl indolyl 2′-deoxyribose]
BL→AP/AP→BL (Peff ratio) [2]: 8.7 ± 1.3 | LD50 ([3]; KB3-1 MDR −/−, 72 hours post-treatment, MTT): 45 ± 3 µM | maximal non-toxic dose ([1]; 48 hour period): 50 µM | maximal non-toxic dose ([1]; 72 hour period): 10 µM | LD50 ([1]; KB-V1 (MDR positive), 72 hours post-treatment, MTT): 44 ± 5 µM | concentration at which cytotoxic ([1]; MTT assay): greater than 50 μM | BL→AP/AP→BL (Peff ratio) [4, 9]: 11.1 and 11.1 ± 2.5 | Ki [5]: 6.5 nM | Km [5]: 0.06 ± 0.01 µM | Vmax [5]: 16 ± 0.2 nmol Pi/min/mg protein | fold by which Ki is lower than Km ([5]; Ki vs Km value of 60 nM): ~ 9 fold

O=[N+]([O-])c1ccc2c(ccn2C2CC(O)C(CO)O2)c1 (stereo not shown) [5-NInd]
interaction with P-gp [6]: do not interact with P-gp

OC[C@H]1O[C@@H](n2ccc3cc(-c4ccccc4)ccc32)C[C@@H]1O [5-PhInd, 5-phenyl indolyl 2′-deoxyribose]
effect on MDR phenotype ([1]; KB-V1): no significant effects on MDR phenotype

COc1cc2c(c(OC)c1OC)-c1ccc(OC)c(=O)cc1[C@@H](NC(C)=O)CC2 [Colchicine, reference compound]
change of LD50 / resistance in presence of 5-CHInd ([1]; KB-V1): did not influence the LD50 values | Km [5]: 37 ± 8 µM

COc1cccc2c1C(=O)c1c(O)c3c(c(O)c1C2=O)C[C@@](O)(C(=O)CO)C[C@@H]3O[C@H]1C[C@H](N)[C@H](O)[C@H](C)O1 [Doxorubicin, reference compound]
change of LD50 / resistance in presence of 5-CHInd ([1]; KB-V1): cells become more resistant

CC(=O)O[C@H]1C(=O)[C@@]2(C)[C@H]([C@H](OC(=O)c3ccccc3)[C@]3(O)C[C@H](OC(=O)[C@H](O)[C@@H](NC(=O)c4ccccc4)c4ccccc4)C(C)=C1C3(C)C)[C@]1(OC(C)=O)CO[C@@H]1C[C@@H]2O [Paclitaxel, reference compound]
potentiating effect of 5-CHInd ([3]; KB3-1, does not overexpress P-gp, Supplemental Information 1): not observed | change of LD50 / resistance in presence of 5-CHInd ([1]; KB-V1): decreases | LD50 ([1]; KB-V1, 48 hours, in presence of 50 μM 5-CHInd): 0.49 ± 0.03 µM | LD50 ([1]; KB-V1, 48 hours, no treatment with 5-CHInd): 4.0 ± 0.24 µM

COC(=O)c1ccccc1-c1c2ccc(=N)cc-2oc2cc(N)ccc12 [Rhodamine 123]
efflux ratio at 60 min, 3 μM [7]: 1.2 ± 0.2 | BL→AP/AP→BL (Peff ratio) [4, 9]: 72.7 | efflux ratio at 60 min, 3 μM [8]: 72.7 ± 15.3

CC[C@]1(O)C[C@@H]2CN(CCc3c([nH]c4ccccc34)[C@@](C(=O)OC)(c3cc4c(cc3OC)N(C)[C@H]3[C@@](O)(C(=O)OC)[C@H](OC(C)=O)[C@]5(CC)C=CCN6CC[C@]43[C@@H]65)C2)C1 [Vinblastine, reference compound]
change of LD50 / resistance in presence of 5-CHInd ([1]; KB-V1): cells become more resistant

Calcein-AM
BL→AP/AP→BL (Peff ratio) [2]: 2.6 ± 0.3 | BL→AP/AP→BL (Peff ratio) ([4]; 4 μM calcein-AM + 10 μM 5-CHInd): ~ 1 | BL→AP/AP→BL (Peff ratio) [4, 9]: 2940 ± 120

From paper PMC3164776 (Biochemistry, 2010)
